Numbering of substitutions follows the chain as printed. Marks after values point to notes of the source that are not given here.
Columns and labels:
hPPARγ = molecular target: T1, hPPARγ (Homo sapiens, UniProt P37231); experiment: PPAR antagonist reporter assay (reference agonist at EC80); type: cell-based
T1 construct: expressed in transfected cells
T1 sequence (P37231 238-503 limits assumed): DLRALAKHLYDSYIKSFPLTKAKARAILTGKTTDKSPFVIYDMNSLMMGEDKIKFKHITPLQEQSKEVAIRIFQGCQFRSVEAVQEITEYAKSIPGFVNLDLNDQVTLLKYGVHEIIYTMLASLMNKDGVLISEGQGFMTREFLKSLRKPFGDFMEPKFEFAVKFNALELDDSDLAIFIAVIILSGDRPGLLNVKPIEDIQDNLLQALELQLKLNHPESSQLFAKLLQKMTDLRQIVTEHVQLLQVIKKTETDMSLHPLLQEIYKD
Experimental: (§1) This study utilized proprietary reporter cells expressing a hybrid receptor comprising the N-terminal Gal4 DNA binding domain fused to the ligand binding domain of the specific human nuclear receptor (hPPARα, hPPARδ, and hPPARγ) and rat nuclear receptor (rPPARα, rPPARδ, and rPPARγ). The reporter vectors used in this Example comprise the firefly luciferase gene functionally linked to the Gal4 upstream activation sequence.
(§2) Nuclear Receptor assay was performed by suspending Reporter Cells in CRM containing 10% charcoal stripped FBS. 2×-EC80 concentrations of the appropriate reference agonist were then added to the Reporter Cell suspension, and 100 μL of the mixture dispensed into wells of a white 96-well plate. Test compounds were diluted using compound screening medium (CSM) containing 10% charcoal stripped FBS to generate “2×-concentration” treatment media. Immediately after this dilution step, 100 μL of each diluted 2×-concentration treatment medium was dispensed (in triplicate) into the Reporter Cell-containing assay wells.
(§3) After incubation at 37° C. for 24 hours, the treatment media was discarded. Each well was rinsed once with LCM Buffer; LCM substrate was then added. After incubation for 30 minutes at 37° C., fluorescence was measured to determine the relative number of live cells per assay well. LCM substrate was then discarded and 100 μL of Luciferase Detection Reagent substrate was added to each well. RLUs were quantified from each well to determine nuclear receptor activities.

rPPARγ [1] = molecular target: T2, rPPARγ (Rattus norvegicus, UniProt O88275); experiment: as above; type: cell-based
T2 construct: expressed in transfected cells
T2 sequence (O88275 238-503 limits assumed): T1 sequence (P37231 238-503 limits assumed) with S93N, V98I, L226V, Q245H
Experimental: as §1, §2, §3

rPPARδ = experiment: as above; type: cell-based, rat
Experimental: as §1, §2, §3

rPPARγ [2] = molecular target: T2, rPPARγ; experiment: PPAR agonist reporter assay (Gal4 hybrid receptor, luciferase); type: cell-based
Experimental: as §1
(§4) Nuclear Receptor assay was performed by dispensing 100 μL of a suspension of Reporter Cells in Cell Recovery Medium (CRM) containing 10% charcoal stripped FBS into each well of a white 96-well plate. Test compounds were diluted using compound screening medium (CSM) containing 10% charcoal stripped FBS to generate “2×-concentration” treatment media. Immediately after this dilution step, 100 μL of each diluted 2×-concentration treatment medium was dispensed (in triplicate) into the Reporter Cell-containing assay wells.
(§5) After incubation at 37° C. for 24 hours, the treatment media was discarded. 100 μL of Luciferase Detection Reagent substrate was added to each well and RLUs were quantified from each well to determine nuclear receptor activities.

hPPARα = molecular target: T3, hPPARα (Homo sapiens, UniProt Q07869); experiment: as above; type: cell-based
T3 construct: expressed in transfected cells
T3 sequence (Q07869 239-466 limits assumed): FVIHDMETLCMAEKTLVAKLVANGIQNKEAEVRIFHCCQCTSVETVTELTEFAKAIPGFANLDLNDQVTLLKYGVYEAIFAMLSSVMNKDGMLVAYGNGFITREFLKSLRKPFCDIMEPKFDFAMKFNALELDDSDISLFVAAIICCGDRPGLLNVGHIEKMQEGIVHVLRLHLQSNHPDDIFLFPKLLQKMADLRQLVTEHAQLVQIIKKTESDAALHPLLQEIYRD
Experimental: as §1, §4, §5

rPPARα = molecular target: T4, rPPARα (Rattus norvegicus, UniProt P37230); experiment: as above; type: cell-based
T4 construct: expressed in transfected cells
T4 sequence (P37230 239-466 limits assumed): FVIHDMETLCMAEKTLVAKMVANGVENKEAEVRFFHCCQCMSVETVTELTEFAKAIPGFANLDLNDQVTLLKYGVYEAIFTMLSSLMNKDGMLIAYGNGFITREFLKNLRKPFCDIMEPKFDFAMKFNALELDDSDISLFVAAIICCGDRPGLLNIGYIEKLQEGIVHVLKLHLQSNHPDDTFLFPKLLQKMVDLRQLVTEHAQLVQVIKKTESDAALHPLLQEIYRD
Experimental: as §1, §4, §5

[3] = at medium to higher doses in the dose response curve

CC/C=C\C[C@H](O)/C=C/C=C\C/C=C\C/C=C\CCCC(=O)OCC [15-HEPE-EE, 15-HEPE ethyl ester]
% Inhibition of agonist-stimulated receptor activity vs. 0.10% DMSO, hPPAR-γ (hPPARγ; 137 nM): 17% | % Inhibition of agonist-stimulated receptor activity vs. 0.10% DMSO, hPPAR-γ (hPPARγ; 412 nM): 0.87% | % Inhibition of agonist-stimulated receptor activity vs. 0.10% DMSO, hPPAR-γ (hPPARγ; 1,235 nM): −1.4% | % Inhibition of agonist-stimulated receptor activity vs. 0.10% DMSO, hPPAR-γ (hPPARγ; 3,704 nM): −4.6% | % Inhibition of agonist-stimulated receptor activity vs. 0.10% DMSO, hPPAR-γ (hPPARγ; 11,111 nM): −0.42% | % Inhibition of agonist-stimulated receptor activity vs. 0.10% DMSO, hPPAR-γ (hPPARγ; 33,333 nM): 5.2% | % Inhibition of agonist-stimulated receptor activity vs. 0.10% DMSO, hPPAR-γ (hPPARγ; 100,000 nM): 44% | % Inhibition of agonist-stimulated receptor activity vs. 0.10% DMSO, hPPAR-γ (hPPARγ; 300,000 nM): 100% | inhibition of human PPARs (in words), hPPARγ (hPPARγ; at higher test concentrations): apparent inhibition | % Inhibition of agonist-stimulated receptor activity vs. 0.10% DMSO, rPPAR-γ (rPPARγ [1]; 137 nM): 10% | % Inhibition of agonist-stimulated receptor activity vs. 0.10% DMSO, rPPAR-γ (rPPARγ [1]; 412 nM): −13% | % Inhibition of agonist-stimulated receptor activity vs. 0.10% DMSO, rPPAR-γ (rPPARγ [1]; 1,235 nM): −7.6% | % Inhibition of agonist-stimulated receptor activity vs. 0.10% DMSO, rPPAR-γ (rPPARγ [1]; 3,704 nM): −6.7% | % Inhibition of agonist-stimulated receptor activity vs. 0.10% DMSO, rPPAR-γ (rPPARγ [1]; 11,111 nM): −4.1% | % Inhibition of agonist-stimulated receptor activity vs. 0.10% DMSO, rPPAR-γ (rPPARγ [1]; 33,333 nM): 8.4% | % Inhibition of agonist-stimulated receptor activity vs. 0.10% DMSO, rPPAR-γ (rPPARγ [1]; 100,000 nM): 26% | % Inhibition of agonist-stimulated receptor activity vs. 0.10% DMSO, rPPAR-γ (rPPARγ [1]; 300,000 nM): 93% | inhibition of rat PPARs (in words), rPPARγ (rPPARγ [1]; at higher test concentrations): apparent inhibition | % Inhibition of agonist-stimulated receptor activity vs. 0.10% DMSO, rPPAR-δ (rPPARδ; 137 nM): 25% | % Inhibition of agonist-stimulated receptor activity vs. 0.10% DMSO, rPPAR-δ (rPPARδ; 412 nM): 1.5% | % Inhibition of agonist-stimulated receptor activity vs. 0.10% DMSO, rPPAR-δ (rPPARδ; 1,235 nM): −1.8% | % Inhibition of agonist-stimulated receptor activity vs. 0.10% DMSO, rPPAR-δ (rPPARδ; 3,704 nM): 6.8% | % Inhibition of agonist-stimulated receptor activity vs. 0.10% DMSO, rPPAR-δ (rPPARδ; 11,111 nM): 1.2% | % Inhibition of agonist-stimulated receptor activity vs. 0.10% DMSO, rPPAR-δ (rPPARδ; 33,333 nM): 26% | % Inhibition of agonist-stimulated receptor activity vs. 0.10% DMSO, rPPAR-δ (rPPARδ; 100,000 nM): 58% | % Inhibition of agonist-stimulated receptor activity vs. 0.10% DMSO, rPPAR-δ (rPPARδ; 300,000 nM): 100% | inhibition of rat PPARs (in words), rPPARδ (rPPARδ; at higher test concentrations): apparent inhibition | Fold-Activation (vs. 0.10% DMSO) rPPAR-γ (rPPARγ [2]; 137 nM): 1.2 fold | Fold-Activation (vs. 0.10% DMSO) rPPAR-γ (rPPARγ [2]; 412 nM): 1.2 fold | Fold-Activation (vs. 0.10% DMSO) rPPAR-γ (rPPARγ [2]; 1,235 nM): 1.4 fold | Fold-Activation (vs. 0.10% DMSO) rPPAR-γ (rPPARγ [2]; 3,704 nM): 1.4 fold | Fold-Activation (vs. 0.10% DMSO) rPPAR-γ (rPPARγ [2]; 11,111 nM): 1.8 fold | Fold-Activation (vs. 0.10% DMSO) rPPAR-γ (rPPARγ [2]; 33,333 nM): 3.5* fold | Fold-Activation (vs. 0.10% DMSO) rPPAR-γ (rPPARγ [2]; 100,000 nM): 10* fold | Fold-Activation (vs. 0.10% DMSO) rPPAR-γ (rPPARγ [2]; 300,000 nM): 14* fold | agonism activity against rat PPARγ (in words) (rPPARγ [2]; [3]): mild to moderate agonism activity | Fold-Activation (vs. 0.10% DMSO) hPPAR-α (hPPARα; 137 nM): 0.90 fold | Fold-Activation (vs. 0.10% DMSO) hPPAR-α (hPPARα; 412 nM): 1.1 fold | Fold-Activation (vs. 0.10% DMSO) hPPAR-α (hPPARα; 1,235 nM): 1.1 fold | Fold-Activation (vs. 0.10% DMSO) hPPAR-α (hPPARα; 3,704 nM): 2.1* fold | Fold-Activation (vs. 0.10% DMSO) hPPAR-α (hPPARα; 11,111 nM): 4.2* fold | Fold-Activation (vs. 0.10% DMSO) hPPAR-α (hPPARα; 33,333 nM): 6.8* fold | Fold-Activation (vs. 0.10% DMSO) hPPAR-α (hPPARα; 100,000 nM): 5.0* fold | Fold-Activation (vs. 0.10% DMSO) hPPAR-α (hPPARα; 300,000 nM): 0.98 fold | agonism activity against human PPARα (in words) (hPPARα; at low to higher doses in the dose response curve): moderate agonism activity | Fold-Activation (vs. 0.10% DMSO) rPPAR-α (rPPARα; 137 nM): 1.1 fold | Fold-Activation (vs. 0.10% DMSO) rPPAR-α (rPPARα; 412 nM): 1.2 fold | Fold-Activation (vs. 0.10% DMSO) rPPAR-α (rPPARα; 1,235 nM): 1.2 fold | Fold-Activation (vs. 0.10% DMSO) rPPAR-α (rPPARα; 3,704 nM): 1.4 fold | Fold-Activation (vs. 0.10% DMSO) rPPAR-α (rPPARα; 11,111 nM): 1.7 fold | Fold-Activation (vs. 0.10% DMSO) rPPAR-α (rPPARα; 33,333 nM): 2.6* fold | Fold-Activation (vs. 0.10% DMSO) rPPAR-α (rPPARα; 100,000 nM): 1.4 fold | Fold-Activation (vs. 0.10% DMSO) rPPAR-α (rPPARα; 300,000 nM): 0.068 fold | agonism activity against rat PPARα (in words) (rPPARα; [3]): mild to moderate agonism activity
